Our source for the DC50 and IC50 values is US11352350B2, “IRAK degraders and uses thereof” (Kymera Therapeutics, Inc., priority 2018, dated 2022).

Assay [1] deals with T1, IRAK4 (Homo sapiens (Human), UniProt Q9NWZ3). The assay is described as follows: IRAK4 MSD degradation in OCI-LY10. It counts as cell-based. The essentials: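 OCI-LY10 cells treated with 8-point 1:3 dilutions (top 1 to 10 μM final) for 4 to 24 h at 37° C. Lysate IRAK4 measured by MSD sandwich immunoassay (2H9 capture, Y279 detection, SULFO-TAG anti-rabbit). DC50 from three-parameter logistic fit.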
T1 sequence (Q9NWZ3 whole entry): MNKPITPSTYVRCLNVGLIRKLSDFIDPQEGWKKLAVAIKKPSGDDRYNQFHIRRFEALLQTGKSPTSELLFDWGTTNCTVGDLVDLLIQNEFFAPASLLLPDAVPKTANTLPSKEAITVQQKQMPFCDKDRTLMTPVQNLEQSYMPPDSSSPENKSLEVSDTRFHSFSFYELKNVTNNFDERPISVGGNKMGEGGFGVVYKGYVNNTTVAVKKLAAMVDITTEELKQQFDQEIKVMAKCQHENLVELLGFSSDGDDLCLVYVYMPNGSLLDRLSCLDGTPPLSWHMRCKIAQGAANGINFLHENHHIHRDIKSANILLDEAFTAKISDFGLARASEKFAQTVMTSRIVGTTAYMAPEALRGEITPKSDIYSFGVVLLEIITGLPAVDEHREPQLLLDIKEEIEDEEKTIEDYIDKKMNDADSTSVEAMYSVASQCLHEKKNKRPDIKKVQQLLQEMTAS

Assay [2] addresses T1, IRAK4. Nature of the assay: hPBMC IRAK4 degradation flow assay. In kind it is cell-based. Conditions: hPBMC monocyte. On the procedure:
hPBMC IRAK4 degradation flow assay. Frozen PBMCs were thawed into RPMI with 10% FBS and allowed to recover. On the same day as thawed, PBMCs were plated in 96 well plate, 90 uL per well. Compound plates were prepared and a 10 point, 5-fold dilution was performed with a final DMSO concentration of 0.1%. Compound 10 μL per well was added, sealed and incubated at 37° C., 5% C02 for 20 hours (for 4 hour treatment, compounds were prepared and added the following day). […] Cells were spun down and washed two times with PBS/0.5% BSA, aspirated to pellet and placed into −80° C. freezer until further processing for flow. On the flow run day, PBMC plates were thawed and samples were transferred to PCR plates. The pre-perm staining cocktail (CD3 Ax488/CD8 BUV805/CD14 BUV395/CD16/56 BV711/CD19 BV785) was added to samples and incubated for 30 minutes at room temperature. Samples were washed two times and permeabilized with methanol for 10 minutes at 4° C. […] Samples were washed two times with PBS/BSA and run on a BD LSRFortessa. Mononuclear cells are gated by SSCH/FSCH and single cells. Monocytes are then gated through CD14 positive gate and lymphocytes are gated through CD14 negative gate. To determine absolute DC50s and max degradation values, MFI values were normalized to DMSO max and 20 hour 10 μM min control. Twenty hour dose curves were calculated using a 4 parameter logistic regression curve fit, no constraints (Top doses were removed if hook effects were observed and the bottom was constrained to 0).

For a further assay, the system named is OCI-LY10. The assay is described as follows: CTG Cell Viability Assay - OCI-LY10. It counts as cell-based, human. The note with it: OCI-LY10, 4 days, read-out: CTG Cell Viability Assay - OCI-LY10: Average external-IC50. The essentials: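 OCI-LY10 cells exposed to 9-dose, 1:3 dilutions from 10 μM top (0.2% DMSO) for 4 days at 37° C, 5% CO2. Viability by CellTiter-Glo luminescence; IC50 from three-parameter logistic fit.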

Setting [3] is: OCI-LY10, 4 hrs, MSD, read-out: IRAK4 MSD degradation in OCI-LY10 at 4 hrs: Average external-Abs DC50.
Setting [4] is: 20 hr, flow assay, read-out: IRAK4 degradation in hPBMC monocyte at 20 hr: Average external Abs DC50.
Setting [5] is: OCI-LY10, 4 hrs, read-out: IRAK4 MSD degradation in OCI-LY10 at 4 hrs: DC50.
Where [6] appears, read: 20 hrs, read-out: IRAK4 degradation in hPBMC monocyte: DC50.
The mark [7] stands for this setting: OCI-LY10, 24 hrs, MSD, read-out: IRAK4 MSD degradation in OCI-LY10 at 24 hrs: Average external-Abs DC50.

The structures appear in SMILES notation. Where two headings read alike, the source gives them in different places.

With `CN(CCCOCCCNc1cccc2c1C(=O)N(C1CCC(=O)NC1=O)C2=O)Cc1ccc(-n2cc(NC(=O)c3cnn4ccc(N5C[C@H]6C[C@@H]5CO6)nc34)c(C(F)F)n2)cc1` (stereo partly drawn) [I-320], the 50% degradation concentration (DC50) (commonly the concentration giving 50% degradation) on IRAK4 [1] (setting [3]) was more than 1000 nM; at IRAK4 [2] (setting [4]) it was 10 to 100 nM. In the assay with OCI-LY10, the IC50 (usually the concentration at which inhibition is half-maximal) is more than 1000 nM.
`O=C1CCC(N2C(=O)c3cccc(NCC4CCN(C[C@H]5CC[C@H](n6cc(NC(=O)c7cnn8ccc(N9C[C@H]%10CC9CO%10)nc78)c(C(F)F)n6)CC5)CC4)c3C2=O)C(=O)N1` (stereo partly drawn) [I-442]: the half-maximal degradation concentration (DC50) at IRAK4 [1] (setting [5]) and on IRAK4 [2] (setting [6]) was 100 to 1000 nM in each case. Further, in the assay on OCI-LY10 (Homo sapiens, OCI-Ly10, 96 h), the IC50 was less than 50 nM.
On to `CC(C)(O)c1cc2nn([C@H]3CC[C@H](CN4CCC5(CC4)CC(Nc4cccc6c4C(=O)N(C4CCC(=O)NC4=O)C6=O)C5)CC3)cc2cc1NC(=O)c1cccc(C(F)(F)F)n1` (stereo partly drawn) [I-326], for which the 50% degradation concentration (DC50) at IRAK4 [1] (setting [3]), on IRAK4 [1] (setting [7]) and at IRAK4 [2] (setting [4]) was less than 10 nM throughout. The IC50 in the assay with OCI-LY10 (Homo sapiens, OCI-Ly10, 96 h) is less than 50 nM.
On to `CN(CCCOCCCNc1cccc2c1C(=O)N(C1CCC(=O)NC1=O)C2=O)C[C@H]1CC[C@H](n2cc3cc(NC(=O)c4cccc(C(F)(F)F)n4)c(C(C)(C)O)cc3n2)CC1` (stereo partly drawn) [I-333], for which the DC50 at IRAK4 [1] (setting [3]) was 10 to 100 nM; at IRAK4 [1] (setting [7]), 10 to 100 nM; on IRAK4 [2] (setting [4]), less than 10 nM. In the assay with OCI-LY10 (Homo sapiens, OCI-Ly10, 96 h), the half-inhibitory concentration (IC50) lay within 100 to 500 nM.
Take `O=C1CCC(N2C(=O)c3cccc(NCCCOCC4CCN(C[C@H]5CC[C@H](n6cc7cc(NC(=O)c8cccc(C(F)(F)F)n8)c(C(F)F)cc7n6)CC5)CC4)c3C2=O)C(=O)N1` (stereo partly drawn) [I-327]: the 50% degradation concentration (DC50) at IRAK4 [1] (setting [3]), on IRAK4 [1] (setting [7]) and at IRAK4 [2] (setting [4]) was 10 to 100 nM throughout. The IC50 with OCI-LY10 (Homo sapiens, OCI-Ly10, 96 h) was 500 to 1000 nM.
As to `O=C1CCC(n2c3cccc(CCCN4CC5(CCN(C[C@H]6CC[C@H](n7cc(NC(=O)c8cnn9ccc(N%10C[C@H]%11C[C@@H]%10CO%11)nc89)c(C(F)F)n7)CC6)CC5)C4)c3c3cccnc32)C(=O)N1` (stereo partly drawn) [I-519], the figures for the DC50 at IRAK4 [1] (setting [5]) and at IRAK4 [2] (setting [6]) were 10 to 100 nM and 100 to 1000 nM, respectively. The IC50 in the assay with OCI-LY10 (Homo sapiens, OCI-Ly10, 96 h) lay within 100 to 500 nM.
In the same order, the values of `C[C@@H](C#Cc1cccc2c1n(C)c(=O)n2C1CCC(=O)NC1=O)OC1CCN(C[C@H]2CC[C@H](n3cc(NC(=O)c4cnn5ccc(N6C[C@H]7C[C@@H]6CO7)nc45)c(C(F)F)n3)CC2)CC1` (stereo partly drawn) [I-544] are 10 to 100 nM, 100 to 1000 nM and more than 1000 nM.
In the case of `O=C1CCC(n2c3cccc(CCCN4CC5(CCN(C(=O)[C@H]6CC[C@H](n7cc(NC(=O)c8cnn9ccc(N%10C[C@H]%11C[C@@H]%10CO%11)nc89)c(C(F)F)n7)CC6)CC5)C4)c3c3cccnc32)C(=O)N1` (stereo partly drawn) [I-445], the half-maximal degradation concentration (DC50) is 10 to 100 nM at IRAK4 [1] (setting [5]) and less than 10 nM at IRAK4 [2] (setting [6]). The IC50 with OCI-LY10 (Homo sapiens, OCI-Ly10, 96 h) is more than 1000 nM.
As for `Cn1c(=O)n(C2CCC(=O)NC2=O)c2cccc(C#CCC3CCN(C[C@H]4CC[C@H](n5cc(NC(=O)c6cnn7ccc(N8CCCOCC8)nc67)c(C(F)F)n5)CC4)CC3)c21` (stereo partly drawn) [I-523], the half-maximal degradation concentration (DC50) at IRAK4 [1] (setting [5]) and on IRAK4 [2] (setting [6]) was less than 10 nM in each case. For the same compound, in the assay on OCI-LY10 (Homo sapiens, OCI-Ly10, 96 h), the IC50 is more than 1000 nM.
In the case of `Cn1c(=O)n(C2CCC(=O)NC2=O)c2cccc(CCCN3CC4(CCN(C(=O)[C@H]5CC[C@H](n6cc(NC(=O)c7cnn8ccc(N9C[C@H]%10C[C@@H]9CO%10)nc78)c(C(F)F)n6)CC5)CC4)C3)c21` (stereo partly drawn) [I-407], the half-maximal degradation concentration (DC50) at IRAK4 [1] (setting [3]) and on IRAK4 [2] (setting [4]) was less than 10 nM throughout. Further, in the assay on OCI-LY10 (Homo sapiens, OCI-Ly10, 96 h), the IC50 was more than 1000 nM.
For `Cn1c(=O)n(C2CCC(=O)NC2=O)c2cccc(CCC(=O)N3CC4(CCN(C[C@H]5CC[C@H](n6cc(NC(=O)c7cnn8ccc(N9C[C@H]%10C[C@@H]9CO%10)nc78)c(C(F)F)n6)CC5)CC4)C3)c21` (stereo partly drawn) [I-410], the figures for the DC50 at IRAK4 [1] (setting [3]) and at IRAK4 [2] (setting [4]) were 10 to 100 nM and less than 10 nM, respectively. Besides, in the assay with OCI-LY10 (Homo sapiens, OCI-Ly10, 96 h), the concentration for half-maximal inhibition (IC50) is more than 1000 nM.
In the case of `Cn1c(=O)n(C2CCC(=O)NC2=O)c2cccc(CCCN3CC4(CCN(C(=O)[C@H]5CC[C@H](n6cc(NC(=O)c7cnn8cccnc78)c(N7CCOCC7)n6)CC5)CC4)C3)c21` (stereo partly drawn) [I-494], the DC50 on IRAK4 [1] (setting [5]) and on IRAK4 [2] (setting [6]) was 100 to 1000 nM in each case. Moreover, the concentration for half-maximal inhibition (IC50) in the assay on OCI-LY10 (Homo sapiens, OCI-Ly10, 96 h) is more than 1000 nM.
